The term IC50 denotes the concentration needed to halve the response being measured. A high value points to weaker potency.

This passage reports IC50, tumor growth inhibition and body weight loss results from patent US20100216779A1 (GLAXOSMITHKLINE LLC, priority 2007, published 2010).

In data set [1] the test system is NCI-H929 (multiple myeloma). As to the kind of experiment: Inhibition of cell proliferation, CellTiter-Glo, NCI-H929. In kind it is cell-based. Particulars: Homo sapiens, 72 h. An outline of the steps: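 Cells were grown in medium with 10% FBS at 37° C, 5% CO2. Cell number was read as CellTiter-Glo luminescence (cellular ATP), with untreated wells as control.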
(In general: Cellular ATP, detected with luciferase, serves as a proxy for viable cell number.)

Data set [2] deals with T1, human IGF-1R (NIH-3T3 cells over expressing human IGF-1R) (Homo sapiens, UniProt P08069).
T1 construct: expressed in transfected cells; host or cells: NIH-3T3 (mouse fibroblasts)
Briefly: IGF-1R cellular autophosphorylation (DELFIA). Format: cell-based. Particulars: IGF-1 stimulated. The method in brief:
(§1)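 Read-out: DELFIA on lysates, receptor-specific capture antibody plus europium-labelled anti-phosphotyrosine, reported as % of IGF-1- or insulin-stimulated signal. Transfected NIH-3T3 cells got compound (30 uM–1.5 nM, 2 h) before a 15 min ligand pulse: IGF-1 30 ng/mL for IGF-1R, insulin 3 ug/mL for IR.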

For data set [3], the target named is T2, IR (NIH-3T3 cells over expressing human IGF-1R or IR) (Homo sapiens, UniProt P06213).
T2 construct: expressed in transfected cells; host or cells: NIH-3T3 (mouse fibroblasts)
Briefly: IR cellular autophosphorylation (DELFIA). Format: cell-based. As to conditions: NIH-3T3 cells over expressing IR, insulin stimulated. The method in brief: as §1

For data set [4], the system named is COLO205 (colon). Briefly: Inhibition of cell proliferation, CellTiter-Glo, COLO205. In kind it is cell-based. As to conditions: Homo sapiens, COLO 205, 72 h. The method in brief: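 Exponentially growing COLO205 cells in medium with 10% FBS were plated below 2000 cells/well at 37 °C, 5% CO2. Untreated wells served as controls.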
In data set [5] the test system is LISN cell (mouse 3T3 fibroblasts transduced with human IGF-1R) tumors. As to the kind of experiment: In vivo efficacy, mice bearing LISN cell tumors. As to conditions: LISN. How it is done:
E. In Vivo Efficacy—Mouse Models
The efficacy of the compounds of Examples 57 and 58 were assessed together in an in vivo efficacy experiment performed on mice bearing LISN cell (mouse 3T3 fibroblasts transduced with human IGF-1R) tumors. Fifty six female nude mice bearing subcutaneous LISN cell tumors were measured for tumor size and body weight and block randomized into seven groups of eight mice with an equal average tumor volume of approximately 200 mm3. Mice were dosed with either vehicle (20% SBE pH3.5), Example 57 or Example 58. The dosing schedules for each compound were based on previous experiments with the compounds and doses chosen to give the highest tumor growth inhibition and a dose response. Example 58 was dosed at 30, 100 and 300 mg/kg QD for 21 days while Example 57 was dosed at 30 mg/kg QD for 21 days, 15 mg/kg BID for 21 days and 30 mg/kg QDx3 days/week for 3 weeks.
The tumors on mice being treated with vehicle grew with the expected exponential growth throughout the 21 day study. […] The lower dose of 30 mg/kg of Example 58 achieved 28% tumor growth inhibition.
The efficacy of the compounds of Examples 237 and 219 were assessed together in an in vivo efficacy experiment performed on mice bearing LISN cell (mouse 3T3 fibroblasts transduced with human IGF-1R) tumors. Sixty four female nude mice bearing subcutaneous LISN cell tumors were measured for tumor size and body weight and block randomized into eight groups of eight mice with an equal average tumor volume of approximately 362 mm^3. Mice were dosed with either vehicle (20% SBE pH3.5), Example 237 or Example 219. The dosing schedules for each compound were based on previous experiments with the compounds and doses chosen to give the highest tumor growth inhibition and a dose response. Example 237 was administered at 30 and 60 mg/kg QD for 21 days and 30 mg/kg BID for 21 days while Example 219 was administered at 50 and 100 mg/kg QD for 21 days, 25 and 50 mg/kg BID for 21 days.
The tumors on mice being treated with vehicle grew with the expected exponential growth throughout the 21 day study. […] The lower dose of 30 mg/kg QD of Example 237 achieved 15% tumor growth inhibition at day 21 (note: 2 animals were euthanized prior to the last measurement). […] This recovered to 3% by the end of dosing and fully recovered after dosing was concluded. […] This recovered fully within 4 days after the completion of dosing.

The structures appear in SMILES notation.

T1 sequence (P08069 31-1367): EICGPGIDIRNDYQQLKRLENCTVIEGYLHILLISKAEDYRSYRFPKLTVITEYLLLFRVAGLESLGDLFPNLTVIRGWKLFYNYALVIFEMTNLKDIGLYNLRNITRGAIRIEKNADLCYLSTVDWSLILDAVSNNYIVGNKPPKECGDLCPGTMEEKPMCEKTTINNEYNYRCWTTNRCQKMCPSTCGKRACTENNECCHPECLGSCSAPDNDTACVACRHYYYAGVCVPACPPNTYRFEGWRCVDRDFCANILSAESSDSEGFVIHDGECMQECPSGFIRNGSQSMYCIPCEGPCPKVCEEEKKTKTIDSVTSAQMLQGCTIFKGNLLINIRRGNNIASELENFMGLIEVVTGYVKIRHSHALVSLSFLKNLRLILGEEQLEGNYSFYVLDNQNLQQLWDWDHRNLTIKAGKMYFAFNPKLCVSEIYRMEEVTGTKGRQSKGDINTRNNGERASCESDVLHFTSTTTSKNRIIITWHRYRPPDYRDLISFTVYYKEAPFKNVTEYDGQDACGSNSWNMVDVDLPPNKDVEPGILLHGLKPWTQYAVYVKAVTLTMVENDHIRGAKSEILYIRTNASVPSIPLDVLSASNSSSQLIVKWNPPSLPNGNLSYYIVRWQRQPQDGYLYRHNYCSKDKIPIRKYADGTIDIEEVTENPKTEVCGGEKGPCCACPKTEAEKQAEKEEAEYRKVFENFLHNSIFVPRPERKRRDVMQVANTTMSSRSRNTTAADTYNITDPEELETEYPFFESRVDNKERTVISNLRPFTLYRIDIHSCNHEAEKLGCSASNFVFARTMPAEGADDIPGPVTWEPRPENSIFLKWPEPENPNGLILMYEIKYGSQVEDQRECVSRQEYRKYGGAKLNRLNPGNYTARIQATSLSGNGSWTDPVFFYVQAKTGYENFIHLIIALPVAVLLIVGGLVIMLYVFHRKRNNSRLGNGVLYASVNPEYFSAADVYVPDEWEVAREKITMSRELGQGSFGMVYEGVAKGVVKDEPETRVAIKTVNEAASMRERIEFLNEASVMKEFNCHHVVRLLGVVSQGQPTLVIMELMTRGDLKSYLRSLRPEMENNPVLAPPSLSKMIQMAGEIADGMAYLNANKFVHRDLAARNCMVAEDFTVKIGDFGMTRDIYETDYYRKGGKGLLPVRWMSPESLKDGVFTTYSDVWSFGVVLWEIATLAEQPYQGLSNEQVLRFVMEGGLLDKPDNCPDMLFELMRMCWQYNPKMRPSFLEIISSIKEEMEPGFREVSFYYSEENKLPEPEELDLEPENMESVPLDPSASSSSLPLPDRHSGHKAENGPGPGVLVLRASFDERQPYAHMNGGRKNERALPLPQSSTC
T2 sequence (P06213 28-1382): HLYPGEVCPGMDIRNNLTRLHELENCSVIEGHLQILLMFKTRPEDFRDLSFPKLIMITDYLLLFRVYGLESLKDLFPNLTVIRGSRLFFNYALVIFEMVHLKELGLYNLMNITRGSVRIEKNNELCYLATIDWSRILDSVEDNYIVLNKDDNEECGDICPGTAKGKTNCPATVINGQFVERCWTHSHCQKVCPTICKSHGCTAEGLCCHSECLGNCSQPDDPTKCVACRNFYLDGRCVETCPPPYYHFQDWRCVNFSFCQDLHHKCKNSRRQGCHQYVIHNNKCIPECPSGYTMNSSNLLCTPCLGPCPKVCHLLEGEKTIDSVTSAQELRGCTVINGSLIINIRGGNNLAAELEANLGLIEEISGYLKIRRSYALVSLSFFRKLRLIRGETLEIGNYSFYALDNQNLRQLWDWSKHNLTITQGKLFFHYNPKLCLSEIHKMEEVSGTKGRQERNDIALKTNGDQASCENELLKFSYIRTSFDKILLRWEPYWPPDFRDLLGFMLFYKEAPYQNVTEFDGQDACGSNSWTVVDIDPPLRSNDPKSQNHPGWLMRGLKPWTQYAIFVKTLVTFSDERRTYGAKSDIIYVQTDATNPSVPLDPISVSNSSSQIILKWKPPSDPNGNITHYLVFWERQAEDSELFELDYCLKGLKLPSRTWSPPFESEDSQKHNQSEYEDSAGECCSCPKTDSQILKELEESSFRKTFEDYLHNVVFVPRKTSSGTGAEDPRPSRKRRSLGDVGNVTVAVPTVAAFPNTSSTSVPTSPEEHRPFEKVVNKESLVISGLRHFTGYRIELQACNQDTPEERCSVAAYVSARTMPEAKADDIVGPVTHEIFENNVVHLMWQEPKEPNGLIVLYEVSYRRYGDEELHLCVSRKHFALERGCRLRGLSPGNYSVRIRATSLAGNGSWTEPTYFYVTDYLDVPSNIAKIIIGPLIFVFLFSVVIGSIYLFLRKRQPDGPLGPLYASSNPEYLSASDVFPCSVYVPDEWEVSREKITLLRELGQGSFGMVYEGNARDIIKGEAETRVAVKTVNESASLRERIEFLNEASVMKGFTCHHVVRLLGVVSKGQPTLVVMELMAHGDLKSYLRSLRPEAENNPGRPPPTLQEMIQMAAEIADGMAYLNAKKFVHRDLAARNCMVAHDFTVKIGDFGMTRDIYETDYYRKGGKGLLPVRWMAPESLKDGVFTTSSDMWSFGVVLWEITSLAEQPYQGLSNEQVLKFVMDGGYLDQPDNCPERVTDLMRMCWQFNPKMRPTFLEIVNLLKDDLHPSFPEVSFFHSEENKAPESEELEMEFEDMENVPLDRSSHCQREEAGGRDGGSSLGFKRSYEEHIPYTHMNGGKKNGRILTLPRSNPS

For `COc1cc(N2CCC(N3CCCCC3)CC2)ccc1Nc1nccc(-c2c(-c3cccc(C(=O)Nc4c(F)cccc4F)c3)nc3ccccn23)n1` [Example 22, 3-[3-(2-{[4-(1,4′-bipiperidin-1′-yl)-2-(methyloxy)phenyl]amino}-4-pyrimidinyl)imidazo[1,2-a]pyridin-2-yl]-N-(2,6-difluorophenyl)benzamide], the IC50 was less than 250 nM in data set [1], less than 100 nM in data set [2], less than 100 nM in data set [3] and 250 to 1000 nM in data set [4].
For `COc1cc(N2CCC(N3CCN(CCF)CC3)CC2)ccc1Nc1nccc(-c2c(-c3cccc(C(=O)Nc4c(F)cccc4F)c3)nc3ccccn23)n1` [Example 57, N-(2,6-difluorophenyl)-3-[3-(2-{[4-{4-[4-(2-fluoroethyl)-1-piperazinyl]-1-piperidinyl}-2-(methyloxy)phenyl]amino}-4-pyrimidinyl)imidazo[1,2-a]pyridin-2-yl]benzamide], the half-maximal inhibitory concentration (IC50) in data set [1] is less than 250 nM; in data set [2], less than 100 nM; in data set [3], less than 100 nM; in data set [4] it was 250 to 1000 nM. Moreover, the tumor growth inhibition turned out to be 50% in data set [5] (15 mg/kg BID for 21 days), 34% in data set [5] (30 mg/kg QD for 21 days) and 69% in data set [5] (30 mg/kg QDx3 days/week for 3 weeks). Moreover, the body weight loss entry is “no body weight loss” in data set [5] (30 mg/kg QD and 15 mg/kg BID treated groups); “significant body weight loss” in data set [5] (30 mg/kg QDx3 days/week for 3 weeks, over the three consecutive days of dosing, recovered in between doses).
